{"source": "ChEMBL document CHEMBL1139703", "about": "“Synthesis and structure-activity relationships of 3-phenyl-2-propenamides as inhibitors of glycogen phosphorylase a” (Bioorg Med Chem Lett, 2006)"}
{"tested_on": "not listed separately", "experiment": "Permeability in artificial phospholipid bilayer membrane at pH 7.05", "type": "ADME", "conditions": "not told, read-out: permeability", "units": {"Papp": "×10⁻⁶ cm/s"}}
{"smiles": "O=C(/C=C/c1ccc(Cl)c(Cl)c1)NCCCCCN1CCC(C(=O)Nc2ccc(Cl)c(Cl)c2)CC1", "Papp": 9}
{"molecular_target": "T1, Glycogen phosphorylase, liver form (Homo sapiens, UniProt P06737)", "T1 sequence (P06737 whole entry)": "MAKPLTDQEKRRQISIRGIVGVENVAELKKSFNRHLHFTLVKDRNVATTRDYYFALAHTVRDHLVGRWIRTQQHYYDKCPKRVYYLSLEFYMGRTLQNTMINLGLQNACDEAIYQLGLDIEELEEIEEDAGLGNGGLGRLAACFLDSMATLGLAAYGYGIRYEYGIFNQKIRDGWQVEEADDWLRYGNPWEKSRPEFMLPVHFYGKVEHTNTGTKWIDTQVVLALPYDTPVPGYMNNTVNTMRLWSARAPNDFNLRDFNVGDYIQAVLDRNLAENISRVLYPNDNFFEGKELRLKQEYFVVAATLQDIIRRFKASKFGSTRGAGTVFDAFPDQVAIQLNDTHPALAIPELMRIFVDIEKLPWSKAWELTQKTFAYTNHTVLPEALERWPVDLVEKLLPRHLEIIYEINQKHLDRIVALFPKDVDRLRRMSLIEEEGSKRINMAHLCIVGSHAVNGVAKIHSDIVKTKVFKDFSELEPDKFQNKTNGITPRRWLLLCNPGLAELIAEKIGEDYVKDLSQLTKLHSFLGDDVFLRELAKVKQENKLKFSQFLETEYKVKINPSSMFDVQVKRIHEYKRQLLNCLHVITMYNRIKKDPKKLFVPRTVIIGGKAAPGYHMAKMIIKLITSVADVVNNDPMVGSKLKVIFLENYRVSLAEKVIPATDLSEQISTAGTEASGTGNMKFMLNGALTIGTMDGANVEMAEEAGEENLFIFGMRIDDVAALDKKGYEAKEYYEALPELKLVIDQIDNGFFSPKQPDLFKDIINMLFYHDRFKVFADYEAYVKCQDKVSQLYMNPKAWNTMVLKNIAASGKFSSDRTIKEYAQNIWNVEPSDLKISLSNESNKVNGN", "experiment": "Inhibition of human liver GPa in absence of glucose", "conditions": "not given", "units": {"IC50": "µM"}}
{"smiles": "O=C(/C=C/c1ccc(Cl)c(Cl)c1)NCCCCCN1CCN(C(=O)Nc2ccc(Cl)c(Cl)c2)CC1", "IC50": "> 20"}
{"molecular_target": "T1, Glycogen phosphorylase, liver form", "experiment": "Inhibition of human liver GPa in presence of glucose", "conditions": "not given", "units": {"IC50": "µM"}}
{"smiles": "O=C(/C=C/c1ccc(Cl)c(Cl)c1)NCCCCCN1CCN(C(=O)Nc2ccc3c(c2)OCO3)CC1", "IC50": 70}
{"smiles": "O=C(/C=C/c1ccc(Cl)c(Cl)c1)NCCCCCCN1CCN(C(=O)Nc2ccc(Cl)c(Cl)c2)CC1", "IC50": 0.44}
{"smiles": "COc1cccc(NC(=O)N2CCN(CCCCCNC(=O)/C=C/c3ccc(Cl)c(Cl)c3)CC2)c1", "IC50": 100}
{"smiles": "O=C(/C=C/c1ccc(Cl)c(Cl)c1)NCCCCCN1CCCN(C(=O)Nc2ccc(Cl)cc2)CC1", "IC50": 51}
{"smiles": "COc1cccc(NC(=O)N2CCCN(CCCCCNC(=O)/C=C/c3ccc(Cl)c(Cl)c3)CC2)c1", "IC50": 10}
{"smiles": "Cc1ccc(NC(=O)N2CCN(CCCCCNC(=O)/C=C/c3ccc(Cl)c(Cl)c3)CC2)cc1", "IC50": 100}
{"smiles": "O=C(/C=C/c1ccc(Cl)c(Cl)c1)NCCCCCN1CCCN(C(=O)Nc2ccc(F)c(Cl)c2)CC1", "IC50": 0.72}
{"smiles": "O=C(/C=C/c1ccccc1)NCCCCN1CCCN(C(=O)Nc2ccc(Cl)c(Cl)c2)CC1", "IC50": 0.17}
{"smiles": "O=C(/C=C/c1ccc(Cl)c(Cl)c1)NCCCCN1CCN(C(=O)Nc2ccc(Cl)c(Cl)c2)CC1", "IC50": 0.71}
{"smiles": "O=C(/C=C/c1ccc(Cl)c(Cl)c1)NCCCCCN1CCN(C(=O)Nc2ccc(Cl)c(Cl)c2)CC1", "IC50": 0.94}
{"smiles": "O=C(/C=C/c1ccc(Cl)c(Cl)c1)NCCCCCN1CCN(C(=O)Nc2ccc(Cl)c(C(F)(F)F)c2)CC1", "IC50": 51}
{"smiles": "O=C(/C=C/c1ccc(Cl)c(Cl)c1)NCCCCCN1CCN(C(=O)Nc2ccc(Cl)cc2)CC1", "IC50": 100}
{"smiles": "O=C(/C=C/c1ccc(Cl)c(Cl)c1)NCCCCCN1CCCN(C(=O)Nc2ccc(Cl)c(C(F)(F)F)c2)CC1", "IC50": 1.6}
{"smiles": "O=C(/C=C/c1ccc(Cl)c(Cl)c1)NCCN1CCCN(C(=O)Nc2ccc(Cl)c(Cl)c2)CC1", "IC50": 100}
{"smiles": "O=C(/C=C/c1ccc(Cl)c(Cl)c1)NCCCN1CCN(C(=O)Nc2ccc(Cl)c(Cl)c2)CC1", "IC50": 0.32}
{"smiles": "Cc1ccc(NC(=O)N2CCCN(CCCCCNC(=O)/C=C/c3ccc(Cl)c(Cl)c3)CC2)cc1", "IC50": 100}
{"smiles": "O=C(/C=C/c1ccc(Cl)c(Cl)c1)NCCN1CCN(C(=O)Nc2ccc(Cl)c(Cl)c2)CC1", "IC50": 90}
{"smiles": "O=C(/C=C/c1ccc(Cl)c(Cl)c1)NCCCCCN1CCCN(C(=O)Nc2cccc(Cl)c2)CC1", "IC50": 1.3}
{"smiles": "O=C(/C=C/c1ccc(Cl)c(Cl)c1)NCCCCCN1CCN(C(=O)Nc2cccc(Cl)c2)CC1", "IC50": 51}
{"smiles": "O=C(/C=C/c1ccc(Cl)c(Cl)c1)NCCCCCN1CCC(C(=O)Nc2ccc(Cl)c(Cl)c2)CC1", "IC50": 0.63}
{"smiles": "O=C(/C=C/c1ccc(Cl)c(Cl)c1)NCCCCCN1CCCN(C(=O)Nc2ccc(Cl)c(Cl)c2)CC1", "IC50": 0.47}
{"smiles": "O=C(/C=C/c1ccc(Cl)c(Cl)c1)NCCCCCN1CCN(C(=O)Nc2ccc(F)c(Cl)c2)CC1", "IC50": 0.98}
{"smiles": "O=C(/C=C/c1ccc(Cl)c(Cl)c1)NCCCCCCN1CCCN(C(=O)Nc2ccc(Cl)c(Cl)c2)CC1", "IC50": 24}
